The source of these data is patent publication US20190374563A1, “TREATMENT OF KLEBSIELLA PNEUMONIAE INFECTIONS WITH ANTIBACTERIAL AMINOGLYCOSIDE COMPOUNDS” (Achaogen, Inc., priority 2009, published 2019).

Values after ≈ are worked out from the molar mass of the structure shown. Where two headings read alike, the source gives them in different places.

Assay [1] has as its system E. coli ATCC 25922 (AECO001). The assay is described as follows: MIC assay, CLSI broth microdilution. In kind it is cell-based. The arrangement: MIC AECO001: unit not given here. The following applies: for MIC: Escherichia coli; for MIC AECO001: Table 3, E. coli ATCC25922. The method, then:
(§1) Minimum inhibitory concentrations (MIC) were determined by reference Clinical and Laboratory Standards Institute (CLSI) broth microdilution methods per M7-A7 [2006]. Quality control ranges utilizing E. coli ATCC 25922, P. aeruginosa ATCC 27853 and S. aureus ATCC 29213, and interpretive criteria for comparator agents were as published in CLSI M100-S17 [2007]. Briefly, serial two-fold dilutions of the test compounds were prepared at 2× concentration in Mueller Hinton Broth. The compound dilutions were mixed in 96-well assay plates in a 1:1 ratio with bacterial inoculum. The inoculum was prepared by suspension of a colony from an agar plate that was prepared the previous day. Bacteria were suspended in sterile saline and added to each assay plate to obtain a final concentration of 5×10^5 CFU/mL. The plates were incubated at 35° C. for 20 hours in ambient air.
(Dilution methods test growth across graded concentrations, often in twofold steps.)

Assay [2] deals with P. aeruginosa ATCC 27853 (APAE001). In words: MIC assay, CLSI broth microdilution. The following applies: Pseudomonas aeruginosa. In kind it is cell-based. The method, then: as §1
The mark [3] stands for this setting: ATCC25922, read-out: MIC AECO001.
[4] abbreviates: ATCC27853, read-out: MIC APAE001.
Setting [5] is: Table 1, AECO001 is ATCC25922, read-out: MIC AECO001.
[6] abbreviates: Table 1, APAE001 is ATCC27853, read-out: MIC APAE001.

What is called MIC is the lowest concentration that inhibits growth of the organism. For `CN[C@@H]1[C@@H](O)[C@@H](O[C@@H]2[C@@H](O)[C@H](O[C@H]3OC(CNCCO)=CC[C@H]3N)[C@@H](N)C[C@H]2NC(=O)[C@H](O)CCN)OC[C@]1(C)O` [Example 2, 6′-(2-Hydroxy-ethyl)-1-(4-amino-2(R)-hydroxy-butyryl)-sisomicin], the MIC in assay [1] (setting [3]) and in assay [2] (setting [4]) was 1 to 16 µg/mL (≈ 1.69 to 27 µM) in each case.

With `CN[C@@H]1[C@@H](O)[C@@H](O[C@@H]2[C@@H](O)[C@H](O[C@H]3OC(CNCC(O)CO)=CC[C@H]3N)[C@@H](N)C[C@H]2NC(=O)[C@H](O)CCN)OC[C@]1(C)O` (stereo partly drawn) [Example 3, 6′-(2-Hydroxy-propanol)-1-(4-amino-2(R)-hydroxy-butyryl)-sisomicin], the MIC in assay [1] (setting [3]) was 1 to 16 µg/mL (≈ 1.61 to 25.7 µM); in assay [2] (setting [4]) it was over 16 µg/mL.

Take `CN[C@@H]1[C@@H](O)[C@@H](O[C@@H]2[C@@H](O)[C@H](O[C@H]3OC(CNCC4CCNCC4)=CC[C@H]3N)[C@@H](N)C[C@H]2NC(=O)[C@H](O)CCN)OC[C@]1(C)O` [Example 4, 6′-(Methyl-piperidin-4-yl)-1-(4-amino-2(R)-hydroxy-butyryl)-sisomicin]: the MIC in assay [1] (setting [3]) and in assay [2] (setting [4]) was 1 to 16 µg/mL (≈ 1.55 to 24.8 µM) each time.

As to `CN[C@@H]1[C@@H](O)[C@@H](O[C@@H]2[C@@H](O)[C@H](O[C@H]3OC(CNCC4CC4)=CC[C@H]3N)[C@@H](N)C[C@H]2NC(=O)[C@H](O)CCN)OC[C@]1(C)O` [Example 5, 6′-(Methyl-cyclopropyl)-1-(4-amino-2(R)-hydroxy-butyryl)-sisomicin], the MIC in assay [1] (setting [3]) is under 1 µg/mL; in assay [2] (setting [4]), 1 to 16 µg/mL (≈ 1.66 to 26.5 µM).

`CN[C@@H]1[C@@H](O)[C@@H](O[C@@H]2[C@@H](O)[C@H](O[C@H]3OC(CNCCCN)=CC[C@H]3N)[C@@H](N)C[C@H]2NC(=O)[C@H](O)CCN)OC[C@]1(C)O` [Example 6, 6′-(3-Amino-propyl)-1-(4-amino-2(R)-hydroxy-butyryl)-sisomicin]: the MIC in assay [1] (setting [3]) and in assay [2] (setting [4]) was 1 to 16 µg/mL (≈ 1.65 to 26.4 µM) in each case.

Turning to `CN[C@@H]1[C@@H](O)[C@@H](O[C@@H]2[C@@H](O)[C@H](O[C@H]3OC(CNCC4CC4)=CC[C@H]3N)[C@@H](N)C[C@H]2NC(=O)[C@H](O)CN)OC[C@]1(C)O` [Example 7, 6′-Methyl-cyclopropyl-1-(3-amino-2(R)-hydroxy-propionyl)-sisomicin], the MIC in assay [1] (setting [3]) was under 1 µg/mL; in assay [2] (setting [4]) it was 1 to 16 µg/mL (≈ 1.7 to 27.2 µM).

`CN[C@@H]1[C@@H](O)[C@@H](O[C@@H]2[C@@H](O)[C@H](O[C@H]3OC(CNCC4CCNCC4)=CC[C@H]3N)[C@@H](N)C[C@H]2NC(=O)[C@H](O)CN)OC[C@]1(C)O` [Example 8, 6′-Methyl-piperidinyl-1-(3-amino-2(R)-hydroxy-propionyl)-sisomicin]: the MIC in assay [1] (setting [3]) was under 1 µg/mL; in assay [2] (setting [4]) it was 1 to 16 µg/mL (≈ 1.58 to 25.3 µM).

`CN[C@@H]1[C@@H](O)[C@@H](O[C@@H]2[C@@H](O)[C@H](O[C@H]3OC(CNCCO)=CC[C@H]3N)[C@@H](N)C[C@H]2NC(=O)[C@H](O)CN)OC[C@]1(C)O` [Example 9, 6′-(2-Hydroxy-ethyl)-1-(3-amino-2(R)-hydroxy-propionyl)-sisomicin]: the MIC in assay [1] (setting [3]) is 1 to 16 µg/mL (≈ 1.73 to 27.6 µM); in assay [2] (setting [4]) it was over 16 µg/mL.

On to `CN[C@@H]1[C@@H](O)[C@@H](O[C@@H]2[C@@H](O)[C@H](O[C@H]3OC(CNCC(O)CO)=CC[C@H]3N)[C@@H](N)C[C@H]2NC(=O)[C@H](O)CN)OC[C@]1(C)O` (stereo partly drawn) [Example 10, 6′-(2-Hydroxy-propanol)-1-(3-amino-2(R)-hydroxy-propionyl)-sisomicin], for which the minimum inhibitory concentration (MIC) in assay [1] (setting [3]) and in assay [2] (setting [4]) was 1 to 16 µg/mL (≈ 1.64 to 26.3 µM) each time.

Regarding `CN[C@@H]1[C@@H](O)[C@@H](O[C@@H]2[C@@H](O)[C@H](O[C@H]3OC(CNCCCN)=CC[C@H]3N)[C@@H](N)C[C@H]2NC(=O)[C@H](O)CN)OC[C@]1(C)O` [Example 11, 6′-(3-Amino-propyl)-1-(3-amino-2(R)-hydroxy-propionyl)-sisomicin], the minimal inhibitory concentration (MIC) in assay [1] (setting [3]) is under 1 µg/mL; in assay [2] (setting [4]), 1 to 16 µg/mL (≈ 1.69 to 27 µM).

`CN[C@@H]1[C@@H](O)[C@@H](O[C@@H]2[C@@H](O)[C@H](O[C@H]3OC(CNCC4CCNCC4)=CC[C@H]3N)[C@@H](N)C[C@H]2NC(=O)[C@@H](O)CCN)OC[C@]1(C)O` [Example 12, 6′-(Methyl-piperidin-4-yl)-1-(4-amino-2(S)-hydroxy-butyryl)-sisomicin]: the MIC in assay [1] (setting [5]) and in assay [2] (setting [6]) was 1 to 16 µg/mL (≈ 1.55 to 24.8 µM) throughout. Further, the “MIC AECO001” value in assay [1] is on record as 1.

In the case of `CN[C@@H]1[C@@H](O)[C@@H](O[C@@H]2[C@@H](O)[C@H](O[C@H]3OC(CNCC4CC4)=CC[C@H]3N)[C@@H](N)C[C@H]2NC(=O)[C@@H](O)CN)OC[C@]1(C)O` [Example 13, 6′-(Methyl-cyclopropyl)-1-(3-amino-2(S)-hydroxy-propionyl)-sisomicin], the figures for the MIC in assay [1] (setting [5]) and in assay [2] (setting [6]) were 1 to 16 µg/mL (≈ 1.7 to 27.2 µM) and over 16 µg/mL, respectively. Also, in assay [1], the “MIC AECO001” value is given as 1.

As for `CN[C@@H]1[C@@H](O)[C@@H](O[C@@H]2[C@@H](O)[C@H](O[C@H]3OC(CNCC(O)CO)=CC[C@H]3N)[C@@H](N)C[C@H]2NC(=O)[C@@H](O)CN)OC[C@]1(C)O` (stereo partly drawn) [Example 14, 6′-(2-Hydroxy-propanol)-1-(3-amino-2(S)-hydroxy-propionyl)-sisomicin], the minimal inhibitory concentration (MIC) in assay [1] (setting [3]) and in assay [2] (setting [4]) was 1 to 16 µg/mL (≈ 1.64 to 26.3 µM) throughout.

`CN[C@@H]1[C@@H](O)[C@@H](O[C@@H]2[C@@H](O)[C@H](O[C@H]3OC(CNCC4CC4)=CC[C@H]3N)[C@@H](N)C[C@H]2NC(=O)[C@@H](O)CCN)OC[C@]1(C)O` [Example 18, 6′-(Methyl-cyclopropyl)-1-(4-amino-2(S)-hydroxy-butyryl)-sisomicin]: the MIC in assay [1] (setting [5]) is under 1 µg/mL; in assay [2] (setting [6]), 1 to 16 µg/mL (≈ 1.66 to 26.5 µM). Also, the “MIC AECO001” value in assay [1] stood at 1.

For the molecule `CN[C@@H]1[C@@H](O)[C@@H](O[C@@H]2[C@@H](O)[C@H](O[C@H]3OC(CNCC(O)CO)=CC[C@H]3N)[C@@H](N)C[C@H]2NC(=O)[C@@H](O)CCN)OC[C@]1(C)O` (stereo partly drawn) [Example 19, 6′-(2-Hydroxy-propanol)-1-(4-amino-2(S)-hydroxy-butyryl)-sisomicin], the minimal inhibitory concentration (MIC) in assay [1] (setting [3]) was under 1 µg/mL; in assay [2] (setting [4]) it was 1 to 16 µg/mL (≈ 1.61 to 25.7 µM).

Consider `CN[C@@H]1[C@@H](O)[C@@H](O[C@@H]2[C@@H](O)[C@H](O[C@H]3OC(CNC(=O)C(O)CN)=CC[C@H]3N)[C@@H](N)C[C@H]2NC(=O)[C@@H](O)CN)OC[C@]1(C)O` (stereo partly drawn) [Example 20, 6′-(3-Amino-2-hydroxy-propionyl)-1-(3-amino-2(S)-hydroxy-propionyl)-sisomicin], for which the MIC in assay [1] (setting [3]) and in assay [2] (setting [4]) was over 16 µg/mL in each case.

Turning to `CN[C@@H]1[C@@H](O)[C@@H](O[C@@H]2[C@@H](O)[C@H](O[C@H]3OC(CNCC(O)C(N)=O)=CC[C@H]3N)[C@@H](N)C[C@H]2NC(=O)[C@@H](O)CN)OC[C@]1(C)O` (stereo partly drawn) [Example 21, 6′-(2-Hydroxy-3-propionamide)-1-(3-amino-2(S)-hydroxy-propionyl)-sisomicin], the minimum inhibitory concentration (MIC) in assay [1] (setting [3]) and in assay [2] (setting [4]) was 1 to 16 µg/mL (≈ 1.61 to 25.7 µM) throughout.

Take `CN[C@@H]1[C@@H](O)[C@@H](O[C@@H]2[C@@H](O)[C@H](O[C@H]3OC(CNCC(O)CO)=CC[C@H]3N)[C@@H](N)C[C@H]2NC(=O)CO)OC[C@]1(C)O` (stereo partly drawn) [Example 23, 6′-(2-Hydroxy-propanol)-1-(2-hydroxy-acetyl)-sisomicin]: the minimum inhibitory concentration (MIC) in assay [1] (setting [3]) and in assay [2] (setting [4]) was over 16 µg/mL throughout.

With `CN[C@@H]1[C@@H](O)[C@@H](O[C@@H]2[C@@H](O)[C@H](O[C@H]3OC(CNCCCN)=CC[C@H]3N)[C@@H](N)C[C@H]2NC(=O)CO)OC[C@]1(C)O` [Example 24, 6′-(3-Amino-propyl)-1-(2-hydroxy-acetyl)-sisomicin], the MIC in assay [1] (setting [3]) and in assay [2] (setting [4]) was 1 to 16 µg/mL (≈ 1.78 to 28.4 µM) in each case.

Consider `CN[C@@H]1[C@@H](O)[C@@H](O[C@@H]2[C@@H](O)[C@H](O[C@H]3OC(CNCCO)=CC[C@H]3N)[C@@H](N)C[C@H]2NC(=O)CO)OC[C@]1(C)O` [Example 25, 6′-(2-Hydroxy-ethyl)-1-(2-hydroxy-acetyl)-sisomicin], for which the minimal inhibitory concentration (MIC) in assay [1] (setting [3]) and in assay [2] (setting [4]) was 1 to 16 µg/mL (≈ 1.82 to 29.1 µM) each time.

Consider `CN[C@@H]1[C@@H](O)[C@@H](O[C@@H]2[C@@H](O)[C@H](O[C@H]3OC(CNCCCN)=CC[C@H]3N)[C@@H](N)C[C@H]2NS(=O)(=O)CCN)OC[C@]1(C)O` [Example 26, 6′-(3-Amino-propyl)-1-(2-amino-ethylsulfonamide)-sisomicin], for which the MIC in assay [1] (setting [3]) and in assay [2] (setting [4]) was 1 to 16 µg/mL (≈ 1.63 to 26.2 µM) in each case.

In the case of `CN[C@@H]1[C@@H](O)[C@@H](O[C@@H]2[C@@H](O)[C@H](O[C@H]3OC(CNCC(O)CO)=CC[C@H]3N)[C@@H](N)C[C@H]2NS(=O)(=O)CCN)OC[C@]1(C)O` (stereo partly drawn) [Example 27, 6′-(2-Hydroxy-propanol)-1-(2-amino-ethylsulfonamide)-sisomicin], the results for the MIC in assay [1] (setting [3]) and in assay [2] (setting [4]) were 1 to 16 µg/mL (≈ 1.59 to 25.4 µM) and over 16 µg/mL, respectively.

For the molecule `CN[C@@H]1[C@@H](O)[C@@H](O[C@@H]2[C@@H](O)[C@H](O[C@H]3OC(CNC[C@H](O)CO)=CC[C@H]3N)[C@@H](N)C[C@H]2NC(=O)[C@@H](O)CCN)OC[C@]1(C)O` [Example 28, 6′-(2(S)-Hydroxy-propanol)-1-(4-amino-2(S)-hydroxy-butyryl)-sisomicin], the minimal inhibitory concentration (MIC) in assay [1] (setting [3]) and in assay [2] (setting [4]) was 1 to 16 µg/mL (≈ 1.61 to 25.7 µM) throughout.

On to `CN[C@@H]1[C@@H](O)[C@@H](O[C@@H]2[C@@H](O)[C@H](O[C@H]3OC(CNCCO)=CC[C@H]3N)[C@@H](N)C[C@H]2NS(=O)(=O)CCN)OC[C@]1(C)O` [Example 29, 6′-(2-Hydroxy-ethyl)-1-(2-amino-ethylsulfonamide)-sisomicin], for which the minimum inhibitory concentration (MIC) in assay [1] (setting [3]) is 1 to 16 µg/mL (≈ 1.67 to 26.7 µM); in assay [2] (setting [4]) it was over 16 µg/mL.
